Columns and labels:
[1] = tested on: antibodies in sera from SARS patients (sera 1a, 1b, 2, 6, 37, 62, London, SARS-yellow, SARS-green); assay type: binding, human; parameters: Binding of serum 6 to linear peptides of protein X1 of SARS-CoV Urbani / Binding of serum 37 to linear peptides of protein X1 of SARS-CoV Urbani / Binding of serum 6 to looped/cyclic peptide (PEPSCAN-ELISA) / Binding of serum 37 to looped/cyclic peptide (PEPSCAN-ELISA) / Binding of serum 37 to looped/cyclic peptides of protein X1 of SARS-CoV Urbani / Binding of serum 6 to linear peptides of protein X2 / Binding of serum 37 to linear peptides of protein X2 / Binding of serum 37 to looped/cyclic peptides of protein X2 of SARS-CoV Urbani / Binding of serum 6 to linear peptides of protein M of SARS-CoV Urbani / Binding of serum 37 to linear peptides of protein M of SARS-CoV Urbani / Binding of serum 6 to looped/cyclic peptides of protein M of SARS-CoV Urbani / Binding of serum 37 to looped/cyclic peptides of protein M of SARS-CoV Urbani / Binding of serum 6 to linear peptides of protein X3 of SARS-CoV Urbani / Binding of serum 37 to linear peptides of protein X3 of SARS-CoV Urbani / Binding of serum 37 to looped/cyclic peptides of protein X3 of SARS-CoV Urbani / Binding of serum 6 to linear peptides of protein X4 of SARS-CoV Urbani / Binding of serum 37 to linear peptides of protein X4 of SARS-CoV Urbani / Binding of serum 37 to looped/cyclic peptides of protein X4 of SARS-CoV Urbani / Binding of serum 6 to linear peptides of protein X5 of SARS-CoV Urbani / Binding of serum 37 to linear peptides of protein X5 of SARS-CoV Urbani / Binding of serum 37 to looped/cyclic peptides of protein X5 of SARS-CoV Urbani / Binding of serum 6 to linear peptides of protein N of SARS-CoV Urbani / Binding of serum 37 to linear peptides of protein N of SARS-CoV Urbani / Binding of serum 6 to linear peptide (PEPSCAN-ELISA) / Binding of serum 1a to looped/cyclic peptides of protein N of SARS-CoV Urbani / Binding of serum 1b to looped/cyclic peptides of protein N of SARS-CoV Urbani / Binding of serum 2 to looped/cyclic peptides of protein N of SARS-CoV Urbani / Binding of serum 6 to looped/cyclic peptides of protein N of SARS-CoV Urbani / Binding of serum 37 to looped/cyclic peptides of protein N of SARS-CoV Urbani / Binding of serum 62 to looped/cyclic peptides of protein N of SARS-CoV Urbani / Binding of serum London to looped/cyclic peptides of protein N of SARS-CoV Urbani / Binding of serum SARS-green to looped/cyclic peptides of protein N of SARS-CoV Urbani: unit not given here
[2] = tested on: control sera (pooled serum of ten healthy LUMC hospital workers; commercial negative donor pooled serum from the Dutch bloodbank); assay type: binding, human
[3] = tested on: rabbit serum obtained by immunizing a rabbit with the SARS-CoV strain Frankfurt 1; assay type: binding; parameters: Binding of a rabbit serum to linear peptides / Binding of a rabbit serum to looped peptides / Rabbit serum linear peptides / Rabbit serum looped peptides / Binding of a rabbit serum to linear peptides of protein N of SARS-CoV Urbani (Rabbit serum linear peptides) / Binding of a rabbit serum to looped/cyclic peptides of protein N of SARS-CoV Urbani (Rabbit serum looped peptides): unit not given here

Sequence: FVVFLLVTLAILTAL
- Binding of serum 1a to linear peptides of protein E of SARS-CoV Urbani [1]: 0.6
- Binding of serum 1a to looped/cyclic peptides of protein E of SARS-CoV Urbani [1]: 0.4
- Binding of serum 1b to linear peptides of protein E of SARS-CoV Urbani [1]: 0.4
- Binding of serum 1b to looped/cyclic peptides of protein E of SARS-CoV Urbani [1]: 0.4
- Binding of serum 2 to linear peptides of protein E of SARS-CoV Urbani [1]: 0.5
- Binding of serum 2 to looped/cyclic peptides of protein E of SARS-CoV Urbani [1]: 0.4
- Binding of serum 6 to linear peptides of protein E of SARS-CoV Urbani [1]: 0.3
- Binding of serum 6 to looped/cyclic peptides of protein E of SARS-CoV Urbani [1]: 0.6
- Binding of serum 37 to linear peptides of protein E of SARS-CoV Urbani [1]: 0.4
- Binding of serum 37 to looped/cyclic peptides of protein E of SARS-CoV Urbani [1]: 0.5
- Binding of serum 62 to linear peptides of protein E of SARS-CoV Urbani [1]: 0.3
- Binding of serum 62 to looped/cyclic peptides of protein E of SARS-CoV Urbani [1]: 0.6
- Binding of serum London to linear peptides of protein E of SARS-CoV Urbani [1]: 0.5
- Binding of serum London to looped/cyclic peptides of protein E of SARS-CoV Urbani [1]: 0.4
- Binding of serum SARS-green to linear peptides of protein E of SARS-CoV Urbani [1]: 0.5
- Binding of serum SARS-green to looped/cyclic peptides of protein E of SARS-CoV Urbani [1]: 0.4
- Binding of serum SARS-yellow to linear peptides of protein E of SARS-CoV Urbani [1]: 0.2
- Binding of serum SARS-yellow to looped/cyclic peptides of protein E of SARS-CoV Urbani [1]: 0.6
- Binding of Control Serum Blood-Bank to Looped peptides [2]: 0.7
- Binding of Control serum Blood-bank to linear peptides [2]: 0.5
- Binding of Control serum LUMC to linear peptides [2]: 0.5
- Binding of Control serum LUMC to looped peptides [2]: 0.6
- Binding of a rabbit serum to linear peptides [3]: 0.2
- Binding of a rabbit serum to looped peptides [3]: 0.2

Sequence: LLFLAFVVFLLVTLA
- Binding of serum 1a to linear peptides of protein E of SARS-CoV Urbani [1]: 0.8
- Binding of serum 1a to looped/cyclic peptides of protein E of SARS-CoV Urbani [1]: 0.7
- Binding of serum 1b to linear peptides of protein E of SARS-CoV Urbani [1]: 0.6
- Binding of serum 1b to looped/cyclic peptides of protein E of SARS-CoV Urbani [1]: 0.4
- Binding of serum 2 to linear peptides of protein E of SARS-CoV Urbani [1]: 0.5
- Binding of serum 2 to looped/cyclic peptides of protein E of SARS-CoV Urbani [1]: 0.6
- Binding of serum 6 to linear peptides of protein E of SARS-CoV Urbani [1]: 0.7
- Binding of serum 6 to looped/cyclic peptides of protein E of SARS-CoV Urbani [1]: 0.4
- Binding of serum 37 to linear peptides of protein E of SARS-CoV Urbani [1]: 0.7
- Binding of serum 37 to looped/cyclic peptides of protein E of SARS-CoV Urbani [1]: 0.7
- Binding of serum 62 to linear peptides of protein E of SARS-CoV Urbani [1]: 0.7
- Binding of serum 62 to looped/cyclic peptides of protein E of SARS-CoV Urbani [1]: 0.7
- Binding of serum London to linear peptides of protein E of SARS-CoV Urbani [1]: 0.5
- Binding of serum London to looped/cyclic peptides of protein E of SARS-CoV Urbani [1]: 0.4
- Binding of serum SARS-green to linear peptides of protein E of SARS-CoV Urbani [1]: 0.4
- Binding of serum SARS-green to looped/cyclic peptides of protein E of SARS-CoV Urbani [1]: 0.4
- Binding of serum SARS-yellow to linear peptides of protein E of SARS-CoV Urbani [1]: 0.2
- Binding of serum SARS-yellow to looped/cyclic peptides of protein E of SARS-CoV Urbani [1]: 0.7
- Binding of Control Serum Blood-Bank to Looped peptides [2]: 0.5
- Binding of Control serum Blood-bank to linear peptides [2]: 0.6
- Binding of Control serum LUMC to linear peptides [2]: 0.4
- Binding of Control serum LUMC to looped peptides [2]: 0.7
- Binding of a rabbit serum to linear peptides [3]: 0.6
- Binding of a rabbit serum to looped peptides [3]: 0.4

Sequence: VDFQVTIAEILIIIM
- Binding of serum 1a to linear peptides of protein X3 of SARS-CoV Urbani [1]: 0.8
- Binding of serum 1a to looped/cyclic peptides of protein X3 of SARS-CoV Urbani [1]: 0.7
- Binding of serum 1b to linear peptides of protein X3 of SARS-CoV Urbani [1]: 0.5
- Binding of serum 1b to looped/cyclic peptides of protein X3 of SARS-CoV Urbani [1]: 0.4
- Binding of serum 2 to linear peptides of protein X3 of SARS-CoV Urbani [1]: 0.7
- Binding of serum 2 to looped/cyclic peptides of protein X3 of SARS-CoV Urbani [1]: 0.6
- Binding of serum 6 to linear peptides of protein X3 of SARS-CoV Urbani [1]: 0.5
- Binding of serum 6 to looped/cyclic peptides of protein X3 of SARS-CoV Urbani [1]: 0.3
- Binding of serum 37 to linear peptides of protein X3 of SARS-CoV Urbani [1]: 0.5
- Binding of serum 37 to looped/cyclic peptides of protein X3 of SARS-CoV Urbani [1]: 0.6
- Binding of serum 62 to linear peptides of protein X3 of SARS-CoV Urbani [1]: 0.6
- Binding of serum 62 to looped/cyclic peptides of protein X3 of SARS-CoV Urbani [1]: 0.6
- Binding of serum London to linear peptides of protein X3 of SARS-CoV Urbani [1]: 0.6
- Binding of serum London to looped/cyclic peptides of protein X3 of SARS-CoV Urbani [1]: 0.2
- Binding of serum SARS-green to linear peptides of protein X3 of SARS-CoV Urbani [1]: 0.4
- Binding of serum SARS-green to looped/cyclic peptides of protein X3 of SARS-CoV Urbani [1]: 0.3
- Binding of serum SARS-yellow to linear peptides of protein X3 of SARS-CoV Urbani [1]: 0.6
- Binding of serum SARS-yellow to looped/cyclic peptides of protein X3 of SARS-CoV Urbani [1]: 0.8
- Binding of Control Serum Blood-Bank to Looped peptides of the protein X3 of SARS-CoV Urbani [2]: 0.6
- Binding of Control serum Blood-bank to linear peptides of the protein X3 of SARS-CoV Urbani [2]: 0.8
- Binding of Control serum LUMC to linear peptides of the protein X3 of SARS-CoV Urbani [2]: 0.8
- Binding of Control serum LUMC to looped peptides of the protein X3 of SARS-CoV Urbani [2]: 0.8
- Rabbit serum linear peptides [3]: 0.3
- Rabbit serum looped peptides [3]: 0.3

Sequence: VNSVLLFLAFVVFLL
- Binding of serum 1a to linear peptides of protein E of SARS-CoV Urbani [1]: 0.9
- Binding of serum 1a to looped/cyclic peptides of protein E of SARS-CoV Urbani [1]: 0.6
- Binding of serum 1b to linear peptides of protein E of SARS-CoV Urbani [1]: 0.1
- Binding of serum 1b to looped/cyclic peptides of protein E of SARS-CoV Urbani [1]: 0.4
- Binding of serum 2 to linear peptides of protein E of SARS-CoV Urbani [1]: 1.1
- Binding of serum 2 to looped/cyclic peptides of protein E of SARS-CoV Urbani [1]: 0.5
- Binding of serum 6 to linear peptides of protein E of SARS-CoV Urbani [1]: 0.6
- Binding of serum 6 to looped/cyclic peptides of protein E of SARS-CoV Urbani [1]: 0.3
- Binding of serum 37 to linear peptides of protein E of SARS-CoV Urbani [1]: 0.5
- Binding of serum 37 to looped/cyclic peptides of protein E of SARS-CoV Urbani [1]: 0.6
- Binding of serum 62 to linear peptides of protein E of SARS-CoV Urbani [1]: 0.2
- Binding of serum 62 to looped/cyclic peptides of protein E of SARS-CoV Urbani [1]: 0.7
- Binding of serum London to linear peptides of protein E of SARS-CoV Urbani [1]: 1.4
- Binding of serum London to looped/cyclic peptides of protein E of SARS-CoV Urbani [1]: 0.3
- Binding of serum SARS-green to linear peptides of protein E of SARS-CoV Urbani [1]: 0.7
- Binding of serum SARS-green to looped/cyclic peptides of protein E of SARS-CoV Urbani [1]: 0.4
- Binding of serum SARS-yellow to linear peptides of protein E of SARS-CoV Urbani [1]: 0.6
- Binding of serum SARS-yellow to looped/cyclic peptides of protein E of SARS-CoV Urbani [1]: 0.6
- Binding of Control Serum Blood-Bank to Looped peptides [2]: 0.5
- Binding of Control serum Blood-bank to linear peptides [2]: 0.5
- Binding of Control serum LUMC to linear peptides [2]: 0.4
- Binding of Control serum LUMC to looped peptides [2]: 0.7
- Binding of a rabbit serum to linear peptides [3]: 0.2
- Binding of a rabbit serum to looped peptides [3]: 0.4
